Experimental data taken from publication PMC3006138, “Fexinidazole – A New Oral Nitroimidazole Drug Candidate Entering Clinical Development for the Treatment of Sleeping Sickness” (PLoS Neglected Tropical Diseases, 2010).
Read-outs that look alike come from different tables or passages of the source.

Key:
[1] = Hepatocyte intrinsic clearance and metabolite profile; assay type: in vitro ADME, mouse; conditions: male, CD-1, mouse, cryopreserved hepatocytes, 1 µM
Procedure: (§1) Fexinidazole was incubated with cryopreserved hepatocytes from male CD-1 mice, male Sprague Dawley rats, male beagle dogs, male cynomolgus monkeys, and from pooled white or African-American human donor samples (purchased commercially), at concentrations of 1 µM and 10 µM. […] The incubated samples were analyzed by LC-MS after extraction into acetonitrile.
(§2) A quality control analysis of fexinidazole was performed via 1H-NMR in DMSO and LC- […]
(§3) provided by the Swiss Tropical Institute (Basel, Switzerland).
(§4) Reagents and solvents were of analytical grade and obtained from Sigma-Aldrich (St. Louis, […]
(§5) Cryopreserved hepatocytes from the male CD1 mouse, lot CSI; male Sprague Dawley rat, lot LPL; male beagle dog, lot BWX; male cynomolgus monkey, lot EHH; and pooled human samples, lot MJI, were purchased from In Vitro Technologies Inc (Baltimore, Maryland, […]
(§6) 5.4. In vitro Incubations
(§7) On the day of the experiment a 10 mM stock solution of fexinidazole in DMSO was prepared and, within 3 hours, aliquots of this freshly prepared solution, after suitable dilution, were added to the incubation matrix, to reach fexinidazole final concentrations of 1 and 10 µM. The final percentage of DMSO was 0.01% in the incubation samples for the […]
(§8) On the day of experiment, the cryopreserved hepatocytes were thawed following the detailed instructions provided by the supplier.
(§9) The number of viable cells was determined using a Trypan Blue exclusion method.
(§10) 5.4.1. Intrinsic Clearance Study […]
(§11) µM with mouse, rat, dog, monkey and human hepatocytes (300000 cells/mL for the mouse and 1 million cells/mL for the other species) in a final incubation volume of 0.75 mL […]
(§12) Incubations were performed in duplicate in a 48-well plate under shaking. Sampling was performed using an automatic liquid handling system (Multiprobe II EX, Packard). At 0, 1, 5, 10, 15, 20, 30, 60 and 120 minutes, 50 µL aliquots of the incubates were taken, then 80 µL of ice-cold acetonitrile and 20 µL of 1 µM warfarin in acetonitrile (internal standard) were added, and samples centrifuged at 2000 rpm for 20 min. The supernatant was analyzed by LC-MS/MS. […]
(§13) the medium alone at t = 0 and 120 minutes.
(§14) For the determination of phase I and phase II activity of hepatocytes, 7-ethoxycoumarin (7-EC) 1 µM, and 7-hydroxycoumarin (7-HC) 30 µM were used as positive controls and incubated under the same conditions as fexinidazole. Aliquots of incubates were taken at 0, 10, 20, 30, 60 and 120 minutes and processed as fexinidazole samples.
(§15) 5.4.2. Metabolite Profile Study
(§16) For metabolite profiling, fexinidazole was incubated at a concentration of 10 µM with mouse, rat, dog, monkey and human hepatocytes (300000 cells/mL for the mouse and 1 million cells/mL for the other species) in a final incubation volume of 2 mL Leibovitz L-15 […]
(§17) Aliquots of the incubation samples were taken at t = 0, 30 and 120 minutes; the metabolism was stopped by the addition of an equal volume of cold acetonitrile and the samples centrifuged at 1500 rpm for 20 min. The supernatant was stored at -20°C until analysis. Control incubations were performed with the compound in the medium alone […]
(§18) 5.5. Analysis of Samples for Intrinsic Clearance Determination
(§19) The analysis of the samples for intrinsic clearance determination was performed by an LC-MS/MS method, using the following conditions:
(§20) HPLC Equipment and Conditions
(§21) HPLC system Agilent 1100 binary pump (Agilent, Palo Alto, USA)
(§22) Autosampler CTC Pal (Alfatech, San Jose, USA)
(§23) Analytical column Guard Column SB-C8 4.6 x 12.5 mm, 5 µm (Zorbax)
(§24) Column temperature ambient
(§25) Mobile phase A 10 mM ammonium formate pH 4.0: acetonitrile (95:5, v:v)
(§26) Mobile phase B 10 mM ammonium formate pH 4.0: acetonitrile (5:95, v:v) […]
(§27) Gradient conditions Step Total time (min) flow (µL/min) %A % B […]
(§28) MS Equipment and Conditions
(§29) Mass spectrometer API 4000 Triple Quadrupole (MDS-Sciex, Toronto, […]
(§30) Source Turbo Ion Spray (TIS)
(§31) Ion mode Positive for fexinidazole and 7-EC.
(§32) Negative for 7-HC, 7-HC sulphate and 7-HC glucuronide.

rat liver cells = assay: Ex vivo unscheduled DNA synthesis; assay type: in vivo
Procedure: Groups of young male Sprague-Dawley rats received fexinidazole at doses of 500, 1000, or 2000 mg/kg orally, and the livers were sampled either 2–4 h or 12–14 h after administration. Hepatocyte suspensions were prepared and incubated in the presence of […] thymidine. Slides of fixed hepatocytes were coated in photographic emulsion and stored for 14 days at 4°C in the dark. The silver grains above the nuclei or cytoplasm (background) were counted, providing a measure of DNA uptake during DNA repair. The difference between these two counts indicated the extent of DNA repair (nuclear net grain count).

[2] = Hepatocyte intrinsic clearance and metabolite profile; assay type: in vitro ADME, dog; conditions: male, beagle, dog, cryopreserved hepatocytes, 1 µM
Procedure: as §1, §2, §3, §4, §5, §6, §7, §8, §9, §10, §11, §12, §13, §14, §15, §16, §17, §18, §19, §20, §21, §22, §23, §24, §25, §26, §27, §28, §29, §30, §31, §32

T. b. brucei GVR35 = assay: Chronic (stage 2) infection mouse model; assay type: in vivo
Procedure: Female NMRI mice were infected via intraperitoneal injection with bloodstream forms of T. b. rhodesiense STIB900 or T. b. gambiense 130R and treated with test drugs daily for 4 consecutive days, starting on day 3 or 7 after infection, respectively, or with bloodstream forms of T. b brucei GVR35 and treated daily from day 21 after infection for 5 days. Parasitemia was evaluated by tail blood examination and surviving, aparasitaemic mice at 60, 90, or 180 days, respectively, were considered cured.

[3] = Respiratory safety (plethysmography); conditions: single oral dose
[4] = Hepatocyte intrinsic clearance and metabolite profile; assay type: in vitro ADME, rat; conditions: male, Sprague Dawley, rat, cryopreserved hepatocytes, 1 µM
Procedure: as §1, §2, §3, §4, §5, §6, §7, §8, §9, §10, §11, §12, §13, §14, §15, §16, §17, §18, §19, §20, §21, §22, §23, §24, §25, §26, §27, §28, §29, §30, §31, §32

CSc1ccc(OCc2ncc([N+](=O)[O-])n2C)cc1 [Fexinidazole, 1-methyl-2-((p-(methylthio)phenoxy)methyl)-5-nitroimidazole]
half-life at 1 µM [1]: 1.4 min
CLint scaled at 1 µM ([1]; read-out: CLint in vitro): > 3000 mL/min/kg
hepatocyte CLint at 1 µM ([1]; read-out: CLint in vitro): 1630 µL/min/1e6 cells
Net nuclear grain count (2–4 h) (rat liver cells; 500 mg/kg po): 0.0
Net nuclear grain count (12–14 h) (rat liver cells; 500 mg/kg po): 0.4
Net nuclear grain count (2–4 h) (rat liver cells; 1000 mg/kg po): −0.1
Net nuclear grain count (12–14 h) (rat liver cells; 1000 mg/kg po): 0.5
Net nuclear grain count (2–4 h) (rat liver cells; 2000 mg/kg po): −0.4
Net nuclear grain count (12–14 h) (rat liver cells; 2000 mg/kg po): 0.2
UDS study result (rat liver cells; rat, in vivo): confirmed the lack of mammalian genotoxic activity
half-life at 1 µM [2]: 1.1 min
CLint scaled at 1 µM ([2]; read-out: CLint in vitro): > 3000 mL/min/kg
hepatocyte CLint at 1 µM ([2]; read-out: CLint in vitro): 656 µL/min/1e6 cells
Cured/infected (T. b. brucei GVR35; 50 mg/kg×5 days po): 0/8
Mean relapse time (T. b. brucei GVR35; 50 mg/kg×5 days po): 41.3 days
cure (T. b. brucei GVR35; 100 mg/kg twice per day for 5 days po, groups of 5 mice, two independent experiments): 100%
Cured/infected (T. b. brucei GVR35; 100 mg/kg×5 days po): 2/8
Mean relapse time (T. b. brucei GVR35; 100 mg/kg×5 days po): >82.1 days
Cured/infected (T. b. brucei GVR35; 200 mg/kg×5 days po): 7/8
Mean relapse time (T. b. brucei GVR35; 200 mg/kg×5 days po): >163.8 days
NOEL on respiratory parameters [3]: 1000 mg/kg
half-life at 1 µM [4]: 1.2 min
CLint scaled at 1 µM ([4]; read-out: CLint in vitro): > 3000 mL/min/kg
hepatocyte CLint at 1 µM ([4]; read-out: CLint in vitro): 602 µL/min/1e6 cells
